Laboratory results from PubChem BioAssay AID1963872 (Molecular Pharmacology Branch, DTP, NCI, 2024).

Test system: KRAS patient-derived spheroids with HUVEC/MSC, viability
Assay: Anticancer human tumor 519858-162-T-J1-PDC patient-derived colon adenocarcinoma cell line growth inhibition [KRAS2]
Conditions: for IC50: curve of first compound; for viability, T/C: stronger effect = lower value
Procedure, shortened: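 Combination screen of spheroid viability in tumor-cell co-cultures with endothelial (HUVEC) and mesenchymal stem cell stroma. Each agent was tested in half-log dilutions, topping at clinical Cmax or at 10 microM without a known Cmax.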

[1] = second compound 0.1 µM, first compound 0.0316 µM
[2] = second compound 0.1 µM, first compound 0.1 µM
[3] = second compound 0.316 µM, first compound 0.0316 µM
[4] = second compound 0.316 µM, first compound 0.1 µM
[5] = second compound 1 µM, first compound 0.0316 µM
[6] = second compound 1 µM, first compound 0.1 µM
[7] = second compound 3.16 µM, first compound 0.0316 µM
[8] = second compound 3.16 µM, first compound 0.1 µM
[9] = second compound 10 µM, first compound 0.0316 µM
[10] = second compound 10 µM, first compound 0.1 µM
[11] = second compound 0.1 µM, first compound 0.316 µM
[12] = second compound 0.1 µM, first compound 1 µM
[13] = second compound 0.1 µM, first compound 3.16 µM
[14] = second compound 0.1 µM, first compound 10 µM
[15] = second compound 0.316 µM, first compound 0.316 µM
[16] = second compound 0.316 µM, first compound 1 µM
[17] = second compound 0.316 µM, first compound 3.16 µM
[18] = second compound 0.316 µM, first compound 10 µM
[19] = second compound 1 µM, first compound 0.316 µM
[20] = second compound 1 µM, first compound 1 µM
[21] = second compound 1 µM, first compound 3.16 µM
[22] = second compound 1 µM, first compound 10 µM
[23] = second compound 3.16 µM, first compound 0.316 µM
[24] = second compound 3.16 µM, first compound 1 µM
[25] = second compound 3.16 µM, first compound 3.16 µM
[26] = second compound 3.16 µM, first compound 10 µM
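Note: compound exposure lasted seven days before readout.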
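Throughout, for viability, T/C: 100% = DMSO vehicle control viability.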

For CN(C)C/C=C/C(=O)Nc1cc2c(Nc3ccc(F)c(Cl)c3)ncnc2cc1O[C@H]1CCOC1 + COc1cc2nc(C)nc(NC(C)c3cc(N)cc(C(F)(F)F)c3)c2cc1OC1CCOC1, the IC50 (second compound 0.1 µM) was over 0.1 µM, the IC50 (second compound 0.316 µM) was over 0.1 µM and the IC50 (second compound 1 µM) was over 0.1 µM. The IC50 (second compound 3.16 µM) was 0.0813 µM, the IC50 (second compound 10 µM) was over 0.1 µM and the viability, T/C (second compound 0.1 µM, first compound 0.000316 µM) was 87%. It also gave a viability, T/C (second compound 0.1 µM, first compound 0.001 µM) of 91.3%, a viability, T/C (second compound 0.1 µM, first compound 0.00316 µM) of 92.7% and a viability, T/C (second compound 0.1 µM, first compound 0.01 µM) of 92.6%. It also gave a viability, T/C [1] of 78.7%, a viability, T/C [2] of 81.2% and a viability, T/C (second compound 0.316 µM, first compound 0.000316 µM) of 93%. It also gave a viability, T/C (second compound 0.316 µM, first compound 0.001 µM) of 73.7%, a viability, T/C (second compound 0.316 µM, first compound 0.00316 µM) of 73.4% and a viability, T/C (second compound 0.316 µM, first compound 0.01 µM) of 73.5%. It also gave a viability, T/C [3] of 90.8%, a viability, T/C [4] of 98.9% and a viability, T/C (second compound 1 µM, first compound 0.000316 µM) of 138%. It also gave a viability, T/C (second compound 1 µM, first compound 0.001 µM) of 146%, a viability, T/C (second compound 1 µM, first compound 0.00316 µM) of 101% and a viability, T/C (second compound 1 µM, first compound 0.01 µM) of 101%. It also gave a viability, T/C [5] of 95.5%, a viability, T/C [6] of 91.2% and a viability, T/C (second compound 3.16 µM, first compound 0.000316 µM) of 85.6%. For the same molecule, the viability, T/C (second compound 3.16 µM, first compound 0.001 µM) was 80.7%, the viability, T/C (second compound 3.16 µM, first compound 0.00316 µM) was 90.3% and the viability, T/C (second compound 3.16 µM, first compound 0.01 µM) was 88.3%. For the same molecule, the viability, T/C [7] was 75.5%, the viability, T/C [8] was 44.5% and the viability, T/C (second compound 10 µM, first compound 0.000316 µM) was 73.2%. For the same molecule, the viability, T/C (second compound 10 µM, first compound 0.001 µM) was 62.5%, the viability, T/C (second compound 10 µM, first compound 0.00316 µM) was 76.9% and the viability, T/C (second compound 10 µM, first compound 0.01 µM) was 88.3%. For the same molecule, the viability, T/C [9] was 70.3% and the viability, T/C [10] was 62.3%.
With CC(=O)Nc1cccc(-n2c(=O)n(C3CC3)c(=O)c3c(Nc4ccc(I)cc4F)n(C)c(=O)c(C)c32)c1 the viability, T/C (compound 0.0001 µM) was 82.5% [middle of 5 runs], the viability, T/C (compound 0.01 µM) was 35.6% [middle of 5 runs] and the viability, T/C (compound 0.0316 µM) was 20.8% [middle of 5 runs].
For CC1(C)CCC(CN2CCN(c3ccc(C(=O)NS(=O)(=O)c4ccc(NCC5CCOCC5)c([N+](=O)[O-])c4)c(Oc4cnc5[nH]ccc5c4)c3)CC2)=C(c2ccc(Cl)cc2)C1 + CC1OCC2(CCN(c3cnc(Sc4ccnc(N)c4Cl)c(N)n3)CC2)C1N, the IC50 (second compound 0.1 µM) was over 10 µM, the IC50 (second compound 0.316 µM) was over 10 µM and the IC50 (second compound 1 µM) was 4.32 µM. It also gave an IC50 (second compound 3.16 µM) of 2.98 µM, an IC50 (second compound 10 µM) of 3.65 µM and a viability, T/C [1] of 81.4%. The viability, T/C [2] was 93.4%, the viability, T/C [11] was 91.2% and the viability, T/C [12] was 82.3%. It also gave a viability, T/C [13] of 72.6%, a viability, T/C [14] of 78.2% and a viability, T/C [3] of 72.6%. For the same molecule, the viability, T/C [4] was 71.3%, the viability, T/C [15] was 89.1% and the viability, T/C [16] was 69.5%. For the same molecule, the viability, T/C [17] was 67.8%, the viability, T/C [18] was 57.4% and the viability, T/C [5] was 65.7%. It also gave a viability, T/C [6] of 74.5%, a viability, T/C [19] of 42.8% and a viability, T/C [20] of 58.7%. For the same molecule, the viability, T/C [21] was 59.9%, the viability, T/C [22] was 23.5% and the viability, T/C [7] was 48.8%. It also gave a viability, T/C [8] of 58.4%, a viability, T/C [23] of 61.7% and a viability, T/C [24] of 62.8%. It also gave a viability, T/C [25] of 60.2%, a viability, T/C [26] of 29.9% and a viability, T/C [9] of 89.7%. The viability, T/C [10] was 66.9%, the viability, T/C (second compound 10 µM, first compound 0.316 µM) was 74.8% and the viability, T/C (second compound 10 µM, first compound 1 µM) was 61.6%. It also gave a viability, T/C (second compound 10 µM, first compound 3.16 µM) of 60.6% and a viability, T/C (second compound 10 µM, first compound 10 µM) of 23.5%.
Cn1nccc1Nc1nccc(-c2cc3c(s2)C(C)(C)N(CCN2CCOCC2)C3=O)n1 + C=CC(=O)N1CCN(c2nc(OCC3CCCN3C)nc3c2CCN(c2cccc4cccc(C)c24)C3)CC1CC#N was tested, and the IC50 (second compound 0.0316 µM) was 4.03 µM, the IC50 (second compound 0.1 µM) was 3.03 µM and the IC50 (second compound 0.316 µM) was 1.69 µM. The IC50 (second compound 1 µM) was 0.693 µM, the IC50 (second compound 3.16 µM) was under 0.0316 µM and the viability, T/C (second compound 0.0316 µM, first compound 0.0316 µM) was 78.1%. For the same molecule, the viability, T/C (second compound 0.0316 µM, first compound 0.1 µM) was 75.3%, the viability, T/C (second compound 0.0316 µM, first compound 0.316 µM) was 82.8% and the viability, T/C (second compound 0.0316 µM, first compound 1 µM) was 68.4%. It also gave a viability, T/C (second compound 0.0316 µM, first compound 3.16 µM) of 56.6%, a viability, T/C (second compound 0.0316 µM, first compound 10 µM) of 28.1% and a viability, T/C [1] of 76.3%. For the same molecule, the viability, T/C [2] was 87.3%, the viability, T/C [11] was 94.7% and the viability, T/C [12] was 60.1%. The viability, T/C [13] was 53.7%, the viability, T/C [14] was 25.3% and the viability, T/C [3] was 77.7%. For the same molecule, the viability, T/C [4] was 74.7%, the viability, T/C [15] was 72% and the viability, T/C [16] was 53.3%. The viability, T/C [17] was 44.8%, the viability, T/C [18] was 32.8% and the viability, T/C [5] was 71.6%. It also gave a viability, T/C [6] of 57.1%, a viability, T/C [19] of 54% and a viability, T/C [20] of 53%. It also gave a viability, T/C [21] of 36.7%, a viability, T/C [22] of 27.1% and a viability, T/C [7] of 47.6%. The viability, T/C [8] was 54.6%, the viability, T/C [23] was 39.8% and the viability, T/C [24] was 30%. It also gave a viability, T/C [25] of 41.5% and a viability, T/C [26] of 17.6%.
